Reference: patent publication US20220041616A1, “SPIRO COMPOUND AND MEDICAL USES THEREOF” (The National Institutes of Pharmaceutical R&D Co., Ltd., priority 2018, published 2022)

Tested on: HepG2 cells
Assay: In vitro inhibition of proliferation of HepG2 cells, CellTiter-Glo
Assay type: cell-based, human
Details: 3 days incubation, top concentration 30 μM
Source text: CellTiter-Glo Analysis Kit (Promega) was used for the detection of the inhibitory effect of the present compound on the proliferation of HepG2 cells. The CellTiter-Glo detection method uses luciferase, which requires ATP for its reaction and luminescence. The intensity of the luminescent signal depends on the amount of ATP, and the amount of ATP depends on the number of living cells. Said analysis only requires that ATP in living cells is converted to luminescence by UltraGlo™ luciferase after treatment with the tested drug, so that the inhibitory effect of the compound is detected based on the luminescence intensity, and its IC50 value is calculated.
a. HepG2 cells were purchased from the American type culture collection (ATCC) resource bank. Cells were cultured in MEM (GIBCO) containing 10% fetal bovine serum, penicillin (100 units/mL) and streptomycin (100 μg/mL), and then incubated in a 37° C. incubator containing 5% carbon dioxide, and passaged once every 2 to 3 days.
b. On the first day, 800 HepG2 cells were inoculated in each well of a 384-well cell culture plate, and then incubated in a 37° C. incubator containing 5% carbon dioxide.
c. On the second day, the medium was changed to that containing the compound. The concentrations of the compound were 30 μM, 10 μM, 3.33 μM, 1.11 μM, 0.37 μM, 0.123 μM, 0.0411 μM, 0.0137 μM, 0.00457 μM and 0.00152 μM. The final concentration of DMSO was 0.3% (v/v). The plate was incubated for 3 days in a incubator containing 5% carbon dioxide at 37° C. The reaction system with paclitaxel at a final concentration of 1 μM was used as positive control; the reaction system with no compound but DMSO at a final concentration of 0.3% was used as negative control.
d. […]
f. The chemiluminescence signal value was read with Envision 2104 instrument.
The average value of the positive and negative control well and the standard deviation were calculated. The percentage inhibition rate was calculated according to the following formula: 100×[1−(compound−average value of positive control)/(average value of negative control−average value of positive control)]. […]

IC50 (Homo sapiens, HepG2, 72 h) [µM]	IC50 [µM]	Structure (SMILES)
> 30		COc1ccccc1C(CN1C(=O)C2(CCC(C(=O)O)C2)C(=O)c2c1sc(-c1ncco1)c2C)OC1CCOCC1 (mixture of isomers) [Compound 5x, 7′-(2-(2-methoxyphenyl)-2-((tetrahydro-2H-pyran-4-yl)oxy)ethyl)-3′-methyl-2′-(oxazol-2-yl)-4′,6′-dioxo-6′,7′-dihydro-4′H-spiro[cyclopentane-1,5′-thieno[2,3-b]pyridine]-3-carboxylic Acid]
	> 30	COc1ccccc1C(CN1C(=O)C2(CCC(C(=O)O)C2)C(=O)c2c1sc(-c1ncco1)c2C)OC1CCOCC1 (mixture of isomers) [Compound 5y, 7′-(2-(2-methoxyphenyl)-2-((tetrahydro-2H-pyran-4-yl)oxy)ethyl)-3′-methyl-2′-(oxazol-2-yl)-4′,6′-dioxo-6′,7′-dihydro-4′H-spiro[cyclopentane-1,5′-thieno[2,3-b]pyridine]-3-carboxylic Acid]
> 30		COc1ccccc1C(CN1C(=O)C2(CC(C(=O)O)C2)C(=O)c2c1sc(-c1ncco1)c2C)OC1CCOCC1 (mixture of isomers) [Compound 8, 7′-(2-(2-methoxyphenyl)-2-((tetrahydro-2H-pyran-4-yl)oxy)ethyl)-3′-methyl-2′-(oxazol-2-yl)-4′,6′-dioxo-6′,7′-dihydro-4′H-spiro[cyclobutane-1,5′-thieno[2,3-b]pyridine]-3-carboxylic Acid]
